In brackets after ≈: the same amount, converted by molar mass. Where two headings read alike, the source gives them in different places.
Assays:
[1] = Lipophilicity determination by HPLC (capacity factor k / calculated log k); assay type: physicochemical; conditions: experimental lipophilicity
Procedure: The lipophilicity determination was performed as described by Kapustikova et al..

[2] = tested on: Staphylococcus aureus ATCC 29213; assay: In vitro antistaphylococcal susceptibility testing (MIC), reference strain; assay type: cell-based
Procedure: (§1) The synthesized compounds were evaluated for in vitro antibacterial activity against representatives of multidrug-resistant bacteria, clinical isolates of methicillin-resistant Staphylococcus aureus (MRSA) 63718, SA 630 and SA 3202 [16, 17] that were obtained from the National Institute of Public Health (Prague, Czech Republic). S. aureus ATCC 29213 was used as the reference and quality control strain. Ampicillin (Sigma, St. Louis, MO, USA) was used as the standard. The screening was performed as described previously.

[3] = tested on: methicillin-resistant S. aureus 63718; assay: In vitro antibacterial evaluation (MIC), MRSA clinical isolate 63718; assay type: cell-based, Staphylococcus aureus
Procedure: as §1

[4] = tested on: methicillin-resistant S. aureus SA 630; assay: In vitro antibacterial evaluation (MIC), MRSA clinical isolate SA 630; assay type: cell-based, Staphylococcus aureus; conditions: read-out: MIC MRSA SA 630
Procedure: as §1

[5] = tested on: methicillin-resistant S. aureus SA 3202; assay: In vitro antibacterial evaluation (MIC), MRSA clinical isolate SA 3202; assay type: cell-based, Staphylococcus aureus; conditions: read-out: MIC MRSA SA 3202
Procedure: as §1

[6] = tested on: Mycobacterium tuberculosis H37Ra ATCC 25177; assay: In vitro antimycobacterial evaluation (MIC), M. tuberculosis; assay type: cell-based
Procedure: (§2) The evaluation of the in vitro antimycobacterial activity of the compounds was performed against Mycobacterium tuberculosis H37Ra ATCC 25177 and M. kansasii DSM 44162 by means of the methodology described recently [e.g., 1,3,4–6,15,43]. Isoniazid (Sigma) was used as the standard.

M. kansasii DSM 44162 = assay: In vitro antimycobacterial evaluation (MIC), M. kansasii; assay type: cell-based, Mycobacterium kansasii
Procedure: as §2

[7] = tested on: human monocytic leukaemia THP-1 cells; assay type: cell-based; conditions: 30 µM highest concentration
Procedure: Human monocytic leukaemia THP-1 cells were obtained from the European Collection of Cell Cultures (ECACC, Salisbury, UK; Methods of characterization: DNA Fingerprinting (Multilocus probes) and isoenzyme analysis). Cell toxicity was determined using a Cytotoxicity Detection Kit^PLUS Lactate dehydrogenase (LDH) assay kit (Roche Diagnostics, Mannheim, Germany) according to the manufacturer’s instructions, as described previously.

[8] = tested on: photosynthetic electron transport (PET) in spinach (Spinacia oleracea L.) chloroplasts; assay: Inhibition of photosynthetic electron transport (PET) in spinach chloroplasts; assay type: biochemical
Procedure: The PET-inhibiting investigation using chloroplasts from spinach (Spinacia oleracea L.) was performed as described previously.

[9] = tested on: M. tuberculosis ATCC 25177/H37Ra; assay: MTT assay, viability of M. tuberculosis; assay type: cell-based, Mycobacterium tuberculosis; conditions: at tested MIC concentration; 7 days
Procedure: Compounds were prepared as previously stated and diluted in MH or MB broth for S. aureus to achieve the desired final concentrations 0.5 and 1 µg/mL, respectively, for S. aureus ATCC 29213, and 2 and 8 µg/mL, respectively, for M. tuberculosis ATCC 25177/H37Ra. M. tuberculosis ATCC 25177/H37Ra was suspended in ODAC supplemented MB at 1.0 McFarland and then diluted 1:10, using MB as a diluent. The diluted mycobacteria (50 µL) were added to each well containing the compound to be tested. S. aureus bacterial suspension in sterile distilled water at 0.5 McFarland was diluted 1:3. Inocula were added to each well by multi-inoculator. Diluted mycobacteria in broth free from inhibiting compounds were used as the growth control. All compounds were prepared in duplicate. […] The plates were read at 570 nm. The absorbance readings from the cells grown in the presence of the tested compounds were compared with uninhibited cell growth to determine the relative percent inhibition. The percent inhibition was determined through the MTT assay. The percent viability is calculated through the comparison of a measured value and that of the uninhibited control: % viability = OD570E/OD570P × 100, where OD570E is the reading from the compound-exposed cells, while OD570P is the reading from the uninhibited cells (positive control). Cytotoxic potential is determined by a percent viability of <70% [37, 38, 39, 52].

S. aureus ATCC 29213 = conditions: Staphylococcus aureus, 24 h
[10] = Staphylococcus aureus, clinical isolate MRSA 63718, read-out: MIC MRSA 63718
[11] = Staphylococcus aureus, one value for the three clinical MRSA strains (63718, SA 630, SA 3202), read-out: MIC against the MRSA strains
[12] = Staphylococcus aureus, clinical isolate MRSA SA 630
[13] = Staphylococcus aureus, clinical isolate MRSA SA 3202
[14] = Mycobacterium kansasii, DSM44162, M. kansasii DSM 44162, read-out: MIC MK
[15] = clinical isolate MRSA 63718, read-out: MIC MRSA 63718
[16] = M. kansasii DSM 44162, read-out: MIC MK

Structure (SMILES) | log k [1] | MIC [2] | MIC ([2]; ATCC29213) | MIC [6] | Tox LD50 [7] | IC50 [8] | MIC [3, 15] | MIC ([4]; clinical isolate MRSA SA 630) | MIC ([5]; clinical isolate MRSA SA 3202) | MIC (M. kansasii DSM 44162; [16]) | other results
COc1cc(NC(=O)c2ccc3ccccc3c2O)cc(OC)c1 [Compound 6, N-(3,5-dimethoxy-phenyl)-1-hydroxynaphthalene-2-carboxamide] | 0.7048 | 12.3 µM (≈ 3.98 µg/mL) | 12.3 µM (≈ 3.98 µg/mL) | 24.7 µM (≈ 7.99 µg/mL) | >30 µM | 13.4 µM | – | – | – | – | MIC ([3]; Staphylococcus aureus, MRSA, read-out: MIC MRSA 63718): 24.7 µM (≈ 7.99 µg/mL); MIC ([3]; Staphylococcus aureus, MRSA, read-out: MIC against the MRSA strains): 24.7 µM (≈ 7.99 µg/mL); MIC ([4]; Staphylococcus aureus, MRSA): 24.7 µM (≈ 7.99 µg/mL); MIC ([5]; Staphylococcus aureus, MRSA): 24.7 µM (≈ 7.99 µg/mL); MIC (M. kansasii DSM 44162; Mycobacterium kansasii, DSM44162, read-out: MIC MK): 24.7 µM (≈ 7.99 µg/mL)
Cc1ccc(C)c(NC(=O)c2ccc3ccccc3c2O)c1 [Compound 11, N-(2,5-dimethylphenyl)-1-hydroxynaphthalene-2-carboxamide] | 0.7155 | – | 13.7 µM (≈ 3.99 µg/mL) | 110 µM (≈ 32 µg/mL) | >30 µM | 52.4 µM | – | – | – | – | MIC [3, 10]: 27.5 µM (≈ 8.01 µg/mL); MIC [3, 11]: 27.5 µM (≈ 8.01 µg/mL); MIC [4, 12]: 27.5 µM (≈ 8.01 µg/mL); MIC [5, 13]: 27.5 µM (≈ 8.01 µg/mL); MIC (M. kansasii DSM 44162; [14]): 220 µM (≈ 64.1 µg/mL)
Cc1cc(C)cc(NC(=O)c2ccc3ccccc3c2O)c1 [Compound 13, N-(3,5-dimethylphenyl)-1-hydroxynaphthalene-2-carboxamide] | 1.0030 | 3.43 µM (≈ 0.999 µg/mL) | 3.43 µM (≈ 0.999 µg/mL) | 6.86 µM (≈ 2 µg/mL) | >30 µM | 8.19 µM | – | – | – | – | MIC [3, 10]: 6.85 µM (≈ 2 µg/mL); MIC [3, 11]: 6.85 µM (≈ 2 µg/mL); MIC [4, 12]: 6.85 µM (≈ 2 µg/mL); MIC [5, 13]: 6.85 µM (≈ 2 µg/mL); MIC (M. kansasii DSM 44162; [14]): 27.4 µM (≈ 7.98 µg/mL); viability of M. tuberculosis H37Ra (MTT) [9]: 32%; viability of S. aureus ATCC 29213 (MTT) (S. aureus ATCC 29213): 19%
COc1cccc(C)c1NC(=O)c1ccc2ccccc2c1O [Compound 16] | 0.4574 | >832 µM | – | 52.0 µM (≈ 16 µg/mL) | – | 747 µM | >832 µM | >832 µM | >832 µM | 104 µM (≈ 32 µg/mL) | –
COc1ccc(C)c(NC(=O)c2ccc3ccccc3c2O)c1 [Compound 17] | 0.5362 | 52.0 µM (≈ 16 µg/mL) | – | 13.0 µM (≈ 4 µg/mL) | – | 142 µM | 832 µM (≈ 256 µg/mL) | 104 µM (≈ 32 µg/mL) | 208 µM (≈ 63.9 µg/mL) | 104 µM (≈ 32 µg/mL) | –
COc1cc([N+](=O)[O-])ccc1NC(=O)c1ccc2ccccc2c1O [Compound 18] | 0.5434 | 756 µM (≈ 256 µg/mL) | – | 378 µM (≈ 128 µg/mL) | – | 495 µM | 756 µM (≈ 256 µg/mL) | 756 µM (≈ 256 µg/mL) | 756 µM (≈ 256 µg/mL) | 756 µM (≈ 256 µg/mL) | –
COc1ccc([N+](=O)[O-])cc1NC(=O)c1ccc2ccccc2c1O [Compound 19] | 0.4827 | 756 µM (≈ 256 µg/mL) | – | 378 µM (≈ 128 µg/mL) | – | 155 µM | 756 µM (≈ 256 µg/mL) | 756 µM (≈ 256 µg/mL) | 756 µM (≈ 256 µg/mL) | 756 µM (≈ 256 µg/mL) | –
COc1ccc(Br)cc1NC(=O)c1ccc2ccccc2c1O [Compound 20, N-(5-Bromo-2-methoxyphenyl)-1-hydroxynaphthalene-2-carboxamide] | 1.0432 | – | 687 µM (≈ 256 µg/mL) | 344 µM (≈ 128 µg/mL) | – | 569 µM | – | – | – | – | MIC [3, 10]: 687 µM (≈ 256 µg/mL); MIC [4, 12]: 687 µM (≈ 256 µg/mL); MIC [5, 13]: 687 µM (≈ 256 µg/mL); MIC (M. kansasii DSM 44162; [14]): 687 µM (≈ 256 µg/mL); melting point: 157 to 159 °C
COc1ccc(C(F)(F)F)cc1NC(=O)c1ccc2ccccc2c1O [Compound 21] | 0.9428 | 708 µM (≈ 256 µg/mL) | – | 354 µM (≈ 128 µg/mL) | – | 26.4 µM | 708 µM (≈ 256 µg/mL) | 708 µM (≈ 256 µg/mL) | 708 µM (≈ 256 µg/mL) | 708 µM (≈ 256 µg/mL) | –
COc1ccc(NC(=O)c2ccc3ccccc3c2O)cc1C(F)(F)F [Compound 22] | 0.8915 | 354 µM (≈ 128 µg/mL) | – | 354 µM (≈ 128 µg/mL) | – | 18.5 µM | 354 µM (≈ 128 µg/mL) | 354 µM (≈ 128 µg/mL) | 5.53 µM (≈ 2 µg/mL) | 88.5 µM (≈ 32 µg/mL) | –
COc1cc(F)cc(NC(=O)c2ccc3ccccc3c2O)c1 [Compound 23, N-(3-Fluoro-5-methoxyphenyl)-1-hydroxynaphthalene-2-carboxamide] | 0.7629 | 1.60 µM (≈ 0.498 µg/mL) | 1.6 µM (≈ 0.498 µg/mL) | 25.6 µM (≈ 7.97 µg/mL) | >30 µM | 10.1 µM | – | – | – | 12.0 µM (≈ 3.74 µg/mL) | MIC [3, 10]: 3.21 µM (≈ 0.999 µg/mL); MIC [3, 11]: 3.21 µM (≈ 0.999 µg/mL); MIC [4, 12]: 3.21 µM (≈ 0.999 µg/mL); MIC [5, 13]: 3.21 µM (≈ 0.999 µg/mL); MIC (M. kansasii DSM 44162; [14]): 12 µM (≈ 3.74 µg/mL); viability of S. aureus ATCC 29213 (MTT) (S. aureus ATCC 29213): 49%
COc1ccc(Cl)c(NC(=O)c2ccc3ccccc3c2O)c1 [Compound 24] | 0.8130 | 781 µM (≈ 256 µg/mL) | – | 24.4 µM (≈ 8 µg/mL) | – | 60.9 µM | 781 µM (≈ 256 µg/mL) | 781 µM (≈ 256 µg/mL) | 781 µM (≈ 256 µg/mL) | 781 µM (≈ 256 µg/mL) | –
Cc1ccc(C(F)(F)F)cc1NC(=O)c1ccc2ccccc2c1O [Compound 25] | 0.7479 | 741 µM (≈ 256 µg/mL) | – | 46.3 µM (≈ 16 µg/mL) | – | 36.7 µM | 741 µM (≈ 256 µg/mL) | 741 µM (≈ 256 µg/mL) | 741 µM (≈ 256 µg/mL) | 92.6 µM (≈ 32 µg/mL) | –
CC[C@@]1(O)C(=O)OCc2c1cc1n(c2=O)Cc2cc3ccccc3nc2-1 [camptothecin, reference compound] | – | – | – | – | 0.16 ± 0.07 µM | – | – | – | – | – | –
